Like-named read-outs stand apart in the source and are kept apart here.
What was measured:
Test in all cases: MIC, broth microdilution (CLSI), substance alone or ATB combined with compound at 4 or 8 μg/mL
[1] = system: ECO 190317; assay type: cell-based, E. coli; details: ECO 190317; for MIC: Escherichia coli
How it was run: (§1)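 Per CLSI-M7-A7, MICs are determined in cation-adjusted Mueller-Hinton broth with a final inoculum of 5·10^5 CFU/mL. Plates incubate 16-20 h at 35° C in air and are read by eye. Fosfomycin assays carry 25 μg/ml glucose-6-phosphate.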

[2] = system: ECO UFR39; assay type: cell-based, E. coli; details: for MIC: Escherichia coli
How it was run: as §1

[3] = system: KPN 6299; assay type: cell-based, K. pneumoniae; details: for MIC: Klebsiella pneumoniae
How it was run: as §1

[4] = system: KPN BAA-1898; assay type: cell-based, K. pneumoniae; details: KPN BAA-1898; for MIC: Klebsiella pneumoniae, BAA1898
How it was run: as §1

[5] = system: KPN UFR42; assay type: cell-based, K. pneumoniae; details: for MIC: Klebsiella pneumoniae
How it was run: as §1

[6] = system: ECL P99; assay type: cell-based, E. cloacae; details: ECL P99
How it was run: as §1

[7] = antibiotic alone, read-out: MIC ATB alone

`CO/N=C(\C(=O)N[C@@H]1C(=O)N2C(C(=O)O)=C(COC(N)=O)CS[C@H]12)c1ccco1` [FUR, Cefuroxime, reference compound] was tested, and the “MIC ATB combined with Example 1 @8 μg/ml” value ([1]; with Example 1 @8 μg/ml) was less than 0.031 mg/L, the “MIC ATB combined with Example 1 @8 μg/ml” value ([1]; with Example 1 at 8 μg/ml) was less than 0.031 mg/L and the “MIC ATB combined with Example 7 @8 μgml” value ([1]; with Example 7 at 8 μg/ml) was less than 0.031 mg/L. For the same molecule, the “MIC ATB combined with Example 9 @4 μg/ml” value ([1]; with Example 9 @4 μg/ml) was less than 0.031 mg/L, the “MIC ATB combined with Example 9 @4 μg/ml” value ([1]; with Example 9 at 4 μg/ml) was less than 0.031 mg/L and the “MIC ATB combined with Example 11 @8 μg/ml” value ([1]; with Example 11 at 8 μg/ml) was less than 0.031 mg/L. The “MIC ATB combined with Example 12 @8 μg/ml” value ([1]; with Example 12 at 8 μg/ml) was less than 0.031 mg/L, the “MIC ATB combined with Example 13 @8 μg/ml” value ([1]; with Example 13 at 8 μg/ml) was less than 0.031 mg/L and the “MIC ATB combined with Example 14 @8 μg/ml” value ([1]; with Example 14 at 8 μg/ml) was less than 0.031 mg/L. For the same molecule, the “MIC ATB combined with Example 15 @4 μgml” value ([1]; with Example 15 at 4 μg/ml) was less than 0.031 mg/L, the “MIC ATB combined with Example 16 @4 μg/ml” value ([1]; with Example 16 at 4 μg/ml) was less than 0.031 mg/L and the MIC [1, 7] was greater than 512 mg/L. The MIC ([1]; substance alone, read-out: MIC) was greater than 512 mg/L, the “MIC ATB combined with Example 1 @8 μg/ml” value ([2]; ECO UFR39, with Example 1 @8 μg/ml) was greater than 32 mg/L and the “MIC ATB combined with Example 1 @8 μg/ml” value ([2]; ECO UFR39, with Example 1 at 8 μg/ml) was greater than 32 mg/L. For the same molecule, the “MIC ATB combined with Example 7 @8 μgml” value ([2]; ECO UFR39, with Example 7 at 8 μg/ml) was less than 0.031 mg/L, the “MIC ATB combined with Example 9 @4 μg/ml” value ([2]; ECO UFR39, with Example 9 @4 μg/ml) was less than 0.031 mg/L and the “MIC ATB combined with Example 9 @4 μg/ml” value ([2]; ECO UFR39, with Example 9 at 4 μg/ml) was less than 0.031 mg/L. For the same molecule, the “MIC ATB combined with Example 11 @8 μg/ml” value ([2]; ECO UFR39, with Example 11 at 8 μg/ml) was less than 0.031 mg/L, the “MIC ATB combined with Example 12 @8 μg/ml” value ([2]; ECO UFR39, with Example 12 at 8 μg/ml) was less than 0.031 mg/L and the “MIC ATB combined with Example 13 @8 μg/ml” value ([2]; ECO UFR39, with Example 13 at 8 μg/ml) was less than 0.031 mg/L. For the same molecule, the “MIC ATB combined with Example 14 @8 μg/ml” value ([2]; ECO UFR39, with Example 14 at 8 μg/ml) was less than 0.031 mg/L, the “MIC ATB combined with Example 15 @4 μgml” value ([2]; ECO UFR39, with Example 15 at 4 μg/ml) was less than 0.031 mg/L and the “MIC ATB combined with Example 16 @4 μg/ml” value ([2]; ECO UFR39, with Example 16 at 4 μg/ml) was less than 0.031 mg/L. The MIC [2] was greater than 256 mg/L, the MIC ([2]; ECO UFR39, antibiotic alone, read-out: MIC ATB alone) was greater than 32 mg/L and the MIC [3, 7] was greater than 512 mg/L. For the same molecule, the MIC ([3]; substance alone, read-out: MIC) was greater than 512 mg/L, the “MIC ATB combined with Example 1 @8 μg/ml” value ([3]; with Example 1 @8 μg/ml) was 8 mg/L and the “MIC ATB combined with Example 1 @8 μg/ml” value ([3]; with Example 1 at 8 μg/ml) was 8 mg/L. The “MIC ATB combined with Example 7 @8 μgml” value ([3]; with Example 7 at 8 μg/ml) was 2 mg/L, the “MIC ATB combined with Example 9 @4 μg/ml” value ([3]; with Example 9 @4 μg/ml) was less than 0.031 mg/L and the “MIC ATB combined with Example 9 @4 μg/ml” value ([3]; with Example 9 at 4 μg/ml) was less than 0.031 mg/L. The “MIC ATB combined with Example 11 @8 μg/ml” value ([3]; with Example 11 at 8 μg/ml) was less than 0.031 mg/L, the “MIC ATB combined with Example 12 @8 μg/ml” value ([3]; with Example 12 at 8 μg/ml) was less than 0.031 mg/L and the “MIC ATB combined with Example 13 @8 μg/ml” value ([3]; with Example 13 at 8 μg/ml) was 2 mg/L. The “MIC ATB combined with Example 14 @8 μg/ml” value ([3]; with Example 14 at 8 μg/ml) was less than 0.031 mg/L, the “MIC ATB combined with Example 15 @4 μgml” value ([3]; with Example 15 at 4 μg/ml) was less than 0.031 mg/L and the “MIC ATB combined with Example 16 @4 μg/ml” value ([3]; with Example 16 at 4 μg/ml) was less than 0.031 mg/L. The “MIC ATB combined with Example 1 @8 μg/ml” value ([4]; with Example 1 @8 μg/ml) was 2 mg/L, the “MIC ATB combined with Example 1 @8 μg/ml” value ([4]; with Example 1 at 8 μg/ml) was 2 mg/L and the “MIC ATB combined with Example 7 @8 μgml” value ([4]; with Example 7 at 8 μg/ml) was 8 mg/L. The “MIC ATB combined with Example 9 @4 μg/ml” value ([4]; with Example 9 @4 μg/ml) was less than 0.031 mg/L, the “MIC ATB combined with Example 9 @4 μg/ml” value ([4]; with Example 9 at 4 μg/ml) was less than 0.031 mg/L and the “MIC ATB combined with Example 11 @8 μg/ml” value ([4]; with Example 11 at 8 μg/ml) was less than 0.031 mg/L. The “MIC ATB combined with Example 12 @8 μg/ml” value ([4]; with Example 12 at 8 μg/ml) was less than 0.031 mg/L, the “MIC ATB combined with Example 13 @8 μg/ml” value ([4]; with Example 13 at 8 μg/ml) was 8 mg/L and the “MIC ATB combined with Example 14 @8 μg/ml” value ([4]; with Example 14 at 8 μg/ml) was less than 0.031 mg/L. For the same molecule, the “MIC ATB combined with Example 15 @4 μgml” value ([4]; with Example 15 at 4 μg/ml) was less than 0.031 mg/L, the “MIC ATB combined with Example 16 @4 μg/ml” value ([4]; with Example 16 at 4 μg/ml) was less than 0.031 mg/L and the MIC [4, 7] was greater than 512 mg/L. The MIC ([4]; substance alone, read-out: MIC) was greater than 512 mg/L, the “MIC ATB combined with Example 1 @8 μg/ml” value ([5]; KPN UFR42, with Example 1 @8 μg/ml) was greater than 32 mg/L and the “MIC ATB combined with Example 1 @8 μg/ml” value ([5]; KPN UFR42, with Example 1 at 8 μg/ml) was greater than 32 mg/L. For the same molecule, the “MIC ATB combined with Example 7 @8 μgml” value ([5]; KPN UFR42, with Example 7 at 8 μg/ml) was greater than 32 mg/L, the “MIC ATB combined with Example 9 @4 μg/ml” value ([5]; KPN UFR42, with Example 9 @4 μg/ml) was greater than 32 mg/L and the “MIC ATB combined with Example 9 @4 μg/ml” value ([5]; KPN UFR42, with Example 9 at 4 μg/ml) was greater than 32 mg/L. For the same molecule, the “MIC ATB combined with Example 11 @8 μg/ml” value ([5]; KPN UFR42, with Example 11 at 8 μg/ml) was less than 0.031 mg/L, the “MIC ATB combined with Example 12 @8 μg/ml” value ([5]; KPN UFR42, with Example 12 at 8 μg/ml) was less than 0.031 mg/L and the “MIC ATB combined with Example 13 @8 μg/ml” value ([5]; KPN UFR42, with Example 13 at 8 μg/ml) was greater than 32 mg/L. The “MIC ATB combined with Example 14 @8 μg/ml” value ([5]; KPN UFR42, with Example 14 at 8 μg/ml) was less than 0.031 mg/L, the “MIC ATB combined with Example 15 @4 μgml” value ([5]; KPN UFR42, with Example 15 at 4 μg/ml) was less than 0.031 mg/L and the “MIC ATB combined with Example 16 @4 μg/ml” value ([5]; KPN UFR42, with Example 16 at 4 μg/ml) was less than 0.031 mg/L. The MIC [5] was greater than 256 mg/L, the MIC ([5]; KPN UFR42, antibiotic alone, read-out: MIC ATB alone) was greater than 32 mg/L and the “MIC ATB combined with Example 1 @8 μg/ml” value ([6]; with Example 1 @8 μg/ml) was “<=0.031 μg/mL”. The “MIC ATB combined with Example 1 @8 μg/ml” value ([6]; with Example 1 at 8 μg/ml) was “<=0.031 μg/mL”, the “MIC ATB combined with Example 7 @8 μgml” value ([6]; with Example 7 at 8 μg/ml) was greater than 32 mg/L and the “MIC ATB combined with Example 9 @4 μg/ml” value ([6]; with Example 9 @4 μg/ml) was less than 0.031 mg/L.

Reference: patent publication US20200024278A1, “COMPOSITION COMPRISING ANTIBIOTIC COMPOUND AND AN HETEROCYCLIC COMPOUND AND THEIR USE IN PREVENTING OR TREATING BACTERIAL INFECTIONS” (MUTABILIS, priority 2016, published 2020)
